This note sets out measurements from patent US12233161B1, “Lipids and lipid nanoparticle formulations” (LONGUIDE BIOPHARMA CORPORATION, priority 2024, dated 2025).

The subject of one series is mice. The series can be described thus: In vivo delivery of FLuc-mRNA lipid nanoparticles in mice, in vivo imaging (IVIS). The note with it: for IVIS: Fluc-mRNA. The essentials: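 Mice (n=3) received about 75 μL FLuc-mRNA LNP per mouse intramuscularly (rectus femoris), intravenously (tail vein), intraperitoneally or subcutaneously (back). After injection, D-luciferin (200 μL, 15 mg/mL) was given i.p. 10-15 min before IVIS imaging.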

The nature of series [1]: Particle size and PDI of nucleic acid lipid nanoparticle preparations by dynamic light scattering. It counts as physicochemical. The essentials: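 LNP solution (about 0.04 mg/mL mRNA before dilution) was diluted in ultrapure water and mixed by gentle pipetting. Particle size and PDI were then measured by dynamic light scattering.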
Series [2] can be described thus: Potential characterization of nucleic acid lipid nanoparticle preparations. It counts as physicochemical. On the procedure: 20 μL of the nucleic acid lipid nanoparticle solution (containing about 0.04 mg/mL mRNA) was taken and added with 780 μL of ultrapure water, used a pipette tip to gently blow and mix, and the potential of the nanopreparation was detected by Malvern particle sizer (model ZEN3700).
27.5 μL nucleic acid lipid nanoparticle solution (containing about 0.04 mg/mL mRNA) was taken and added with 200 μL ultrapure water. A pipette tip was used to gently blow the sample and mix well. The particle size of the nanopreparation was detected by Malvern Dynamic Light Scattering Instrument (Malvern Instruments Ltd., ZEN3700, UK). After the detection, the sample was recovered to an EP tube, and 600 μL of ultrapure water was added, gently blown with a pipette tip, and the potential of the nanopreparation was measured by a Malvern particle size meter.

Where [3] appears, read: DSPE-PEG5000:DSPC:Chol:compound 1.40:11.15:38.95:48.50, N/P 30.
Setting [4] is: IM, DMG-PEG2000:DSPC:Chol:compound 1.40:11.15:38.95:48.50, N/P 30.
Where [5] appears, read: IV, liver, DMG-PEG2000:DSPC:Chol:compound 1.40:11.15:38.95:48.50, N/P 30.
Setting [6] is: IV, lung, DMG-PEG2000:DSPC:Chol:compound 1.40:11.15:38.95:48.50, N/P 30.
The mark [7] stands for this setting: IV, spleen, DMG-PEG2000:DSPC:Chol:compound 1.40:11.15:38.95:48.50, N/P 30.
Setting [8] is: DMG-PEG2000:DSPC:Chol:compound 1.40:11.15:38.95:48.50, N/P 30.
Where [9] appears, read: IM, DMG-PEG2000:DSPC:Chol:compound 1.40:11.15:38.95:48.50, N/P 20.
Where [10] appears, read: IV, liver, DMG-PEG2000:DSPC:Chol:compound 1.40:11.15:38.95:48.50, N/P 20.
The mark [11] stands for this setting: IV, lung, DMG-PEG2000:DSPC:Chol:compound 1.40:11.15:38.95:48.50, N/P 20.
Where [12] appears, read: IV, spleen, DMG-PEG2000:DSPC:Chol:compound 1.40:11.15:38.95:48.50, N/P 20.
Where [13] appears, read: DMG-PEG2000:DSPC:Chol:compound 1.40:11.15:38.95:48.50, N/P 20.

SMILES strings stand for the structures.

Consider `CCCCCCCCCCCCN(C)C(=O)C(O)CN(CCCN(CC(O)C(=O)N(C)CCCCCCCCCCCC)CC(O)C(=O)N(C)CCCCCCCCCCCC)CCCN(CC(O)C(=O)N(C)CCCCCCCCCCCC)CC(O)C(=O)N(C)CCCCCCCCCCCC` (stereo not shown) [Compound L0342], for which the IVIS in the series with mice (IM, DSPE-PEG5000:DSPC:Chol:compound 1.40:11.15:38.95:48.50, N/P 30) is on record as 2.02E+07. Also, the IVIS in the series with mice (IV, organ not given, DSPE-PEG5000:DSPC:Chol:compound 1.40:11.15:38.95:48.50, N/P 30) came to 5.77E+06. Besides, in series [1] (setting [3]), the PDI is listed as 0.24 and the “Particle size (nm)” value was 73.79 nm. Also, the “Zeta potential (mV)” value in series [2] (setting [3]) came to 5.68 mV.
In the case of `CCCCCCCCC(CCCCCC)C(=O)OCCCCCCOC(=O)C(O)CN(C)CCN(C)CCN(C)CC(O)C(=O)OCCCCCCOC(=O)C(CCCCCC)CCCCCCCC` (stereo not shown) [Compound L0292], the IVIS with mice (setting [4]) was 1.05E+05; in the series on mice (IV, body, DMG-PEG2000:DSPC:Chol:compound 1.40:11.15:38.95:48.50, N/P 30), 9.82E+06; with mice (setting [5]) it was 3.22E+06; in the series with mice (setting [6]), 2.05E+06; with mice (setting [7]) it was 7.53E+06. Also, the “% of organ targeting” value in the series on mice (setting [5]) amounted to 25.18%; in the series on mice (setting [6]), 16.03%; in the series with mice (setting [7]), 58.80%. In series [1] (setting [8]), this compound came in with a PDI of 0.22. Besides, the “Particle size (nm)” value in series [1] (setting [8]) came out at 151.20 nm. In addition, the “Zeta potential (mV)” value in series [2] (setting [8]) is given as 13.33 mV.
`CCCCCCOC(C)OCCCCCCOC(=O)C(O)CN(CCCN(C)CCCN(CC(O)C(=O)OCCCCCCOC(C)OCCCCCC)CC(O)C(=O)OCCCCCCOC(C)OCCCCCC)CC(O)C(=O)OCCCCCCOC(C)OCCCCCC` (stereo not shown) [Compound L0316] returned an IVIS in the series on mice (setting [4]) of 4.46E+06. In addition, the IVIS in the series on mice (IV, organ not given, DMG-PEG2000:DSPC:Chol:compound 1.40:11.15:38.95:48.50, N/P 30) is 3.53E+08. Moreover, in series [1] (setting [8]), the PDI was 0.12 and the “Particle size (nm)” value was 125.9 nm. In addition, the “Zeta potential (mV)” value in series [2] (setting [8]) is given as 18.97 mV.
For the compound `CCCCCCCCCCNC(=O)C(O)CN(CCCCCCCN(CC(O)C(=O)NCCCCCCCCCC)CC(O)C(=O)NCCCCCCCCCC)CC(O)C(=O)NCCCCCCCCCC` (stereo not shown) [Compound L0323], the IVIS in the series with mice (setting [9]) came to 7.24E+05; in the series on mice (IV, body, DMG-PEG2000:DSPC:Chol:compound 1.40:11.15:38.95:48.50, N/P 20), 2.95E+06; in the series on mice (setting [10]), 8.40E+05; in the series with mice (setting [11]), 1.16E+05; with mice (setting [12]) it was 9.53E+05. The “% of organ targeting” value is on record as 44.01% with mice (setting [10]), 6.06% with mice (setting [11]) and 49.93% in the series on mice (setting [12]). In addition, the PDI in series [1] (setting [13]) is 0.14. In series [1] (setting [13]), the “Particle size (nm)” value stood at 94.78 nm. In series [2] (setting [13]), the “Zeta potential (mV)” value is reported as 8.37 mV.
In the case of `CCCCCCOC(C)OCCCCCCOC(=O)C(O)CN(C)CCN(C)CCN(C)CC(O)C(=O)OCCCCCCOC(C)OCCCCCC` (stereo not shown) [Compound L0300], the IVIS in the series with mice (setting [9]) was determined as 1.09E+06. In the series on mice (IV, organ not given, DMG-PEG2000:DSPC:Chol:compound 1.40:11.15:38.95:48.50, N/P 20), this compound returned an IVIS of 7.12E+05. Further, in series [1] (setting [13]), the PDI came out at 0.13 and the “Particle size (nm)” value is on record as 157.77 nm. Further, the “Zeta potential (mV)” value in series [2] (setting [13]) is given as 5.14 mV.
